Laboratory results taken from patent US6344206B1, “Combination of a retinoid with a polyamine polymer” (L'Oreal, priority 1997, dated 2002).

Assay: Test of stability of all-trans-retinol in ethanol during preservation at 50° C. (residual retinol by HPLC)
Assay type: physicochemical
Details: retinol 0.3% w/v in ethanol without stabilizer, 20 days of storage at 50° C., aerobic medium
Procedure: The stability of a retinoid is defined in accordance with the present invention by the percentage of retinoid which remains in its original form after the composition containing the retinoid has been stored for a given period and at a given temperature.
The study conditions are the following:
PEI at 0.25, 0.5 and 1% (by weight/volume) in ethanol;
All-trans-retinol marketed by Fluka at 0.3% (by weight/volume) in ethanol;
Aerobic medium with 55 vol % air and 45 vol % ethanol;
Preservation at 50° C. in an oven;
The level of residual retinol after one month of preservation at 50° C. in an aerobic medium (55% of volume of air) is monitored by HPLC (on a Spherisorb ODS1 C18 column) by elution with an H2O/CH3CO2H/CH3CO2NH4/acetonitrile:
The level of residual retinol after two months of storage at 50° C. in an aerobic medium (55 vol % air) is monitored by HPLC (same conditions as in Test 1).
The level of residual retinol after one month of storage at 50° C. in an aerobic medium (55 vol % air) is monitored by HPLC (same conditions as in Test 1).
From an alcoholic solution of retinol at 0.26%, the level of residual retinol after several days of storage of the formulae at 50° C. in aerobic medium (55 vol % of air) is monitored by HPLC. […]

Degradation of retinol: ~99%
Structure (SMILES): CC1=C(/C=C/C(C)=C/C=C/C(C)=C/CO)C(C)(C)CCC1 [retinol, All-trans-retinol]
